Assays:
Type in all cases: in vivo
Design in all cases: key: 0 indicates no effect; 5 indicates complete kill
Rubus palmatus = test: Foliage treatment of naturally growing weeds and brush (Example 9); conditions: Plant No. 18 Rubus palmatus, One month
Excerpt: (§1) Aqueous solutions of Phosalacine (Na salt) at different concentrations and 0.1% of octylphenylpolyoxy ethanol as surfactant were applied to the area where various weeds and brush were naturally growing at a rate of 1500 liter per hectare. One month after the foliage treatment, damage to weeds and brush was visually assessed on a scale of from 0 to 5 where 0 indicates no effect and 5 indicates complete kill as hereinbefore defined.

Zanthoxylum piperitum = test: as above; conditions: Plant No. 19 Zanthoxylum piperitum, One month
Excerpt: as §1

Viburnum dilatatum = test: as above; conditions: Plant No. 21 Viburnum dilatatum, One month
Excerpt: as §1

[1] = system: various weeds and brush (overall evaluation); test: as above; conditions: OE overall evaluation, One month
Excerpt: as §1

Smilax china = test: as above; conditions: Plant No. 17 Smilax china, One month
Excerpt: as §1

Pteridium aquilinum = test: as above; conditions: Plant No. 20 Pteridium aquilinum, One month
Excerpt: as §1

Castanea crenata = test: as above; conditions: Plant No. 8 Castanea crenata, One month
Excerpt: as §1

Raphanus sativus = test: Foliage treatment (Example 8); conditions: Plant No. 32 Raphanus sativus
Description: (§2) Aqueous solutions of Phosalacine (Na salt) at different concentrations were applied at a rate of 1500 liters per hectare to naturally occurring plants or plants which were cultured on plates as shown in the following Table at certain stages of growth. […] One month after the foliage treatment, the inhibition of regrowth of the plants was visually investigated.

Helianthus tuberosus = test: Foliage treatment (Example 8); conditions: Plant No. 12 Helianthus tuberosus
Description: as §2

Imperata cyrindrica = test: Foliage treatment (Example 8); conditions: Plant No. 15 Imperata cyrindrica
Description: as §2

Solanum melongena = test: Foliage treatment (Example 8); conditions: Plant No. 31 Solanum melongena
Description: as §2

Daucus carota = test: Foliage treatment (Example 8); conditions: Plant No. 29 Daucus carota
Description: as §2

Digitaria adscendens = test: Foliage treatment (Example 8); conditions: Plant No. 10 Digitaria adscendens
Description: as §2

Pueraria lobata = test: Foliage treatment (Example 8); conditions: Plant No. 16 Pueraria lobata
Description: as §2

Pleioblastus chino = test: Foliage treatment (Example 8); conditions: Plant No. 11 Pleioblastus chino
Description: as §2

Rumex obtusifolius = test: Foliage treatment (Example 8); conditions: Plant No. 14 Rumex obtusifolius
Description: as §2

Oryzae sativa = test: Foliage treatment (Example 8); conditions: Plant No. 25 Oryzae sativa
Description: as §2

Cayratia japonica = test: Foliage treatment (Example 8); conditions: Plant No. 13 Cayratia japonica
Description: as §2

Triticum aestivum = test: Foliage treatment (Example 8); conditions: Plant No. 26 Triticum aestivum
Description: as §2

C[C@H](NC(=O)[C@H](C)NC(=O)[C@@H](N)CCP(C)(=O)[O-])C(=O)O.[Na+] [SF, reference compound]
damage to weeds and brush, scale 0 to 5 (Rubus palmatus; 0.05%): 2 | damage to weeds and brush, scale 0 to 5 (Rubus palmatus; 0.1%): 4 | damage to weeds and brush, scale 0 to 5 (Rubus palmatus; 0.2%): 5 | damage to weeds and brush, scale 0 to 5 (Zanthoxylum piperitum; 0.05%): 2 | damage to weeds and brush, scale 0 to 5 (Zanthoxylum piperitum; 0.1%): 4 | damage to weeds and brush, scale 0 to 5 (Zanthoxylum piperitum; 0.2%): 5 | damage to weeds and brush, scale 0 to 5 (Viburnum dilatatum; 0.05%): 2 | damage to weeds and brush, scale 0 to 5 (Viburnum dilatatum; 0.1%): 4 | damage to weeds and brush, scale 0 to 5 (Viburnum dilatatum; 0.2%): 5 | damage to weeds and brush, scale 0 to 5 ([1]; 0.05%): 2 | damage to weeds and brush, scale 0 to 5 ([1]; 0.1%): 4 | damage to weeds and brush, scale 0 to 5 ([1]; 0.2%): 5 | damage to weeds and brush, scale 0 to 5 (Smilax china; 0.05%): 2 | damage to weeds and brush, scale 0 to 5 (Smilax china; 0.1%): 4 | damage to weeds and brush, scale 0 to 5 (Smilax china; 0.2%): 5 | damage to weeds and brush, scale 0 to 5 (Pteridium aquilinum; 0.05%): 2 | damage to weeds and brush, scale 0 to 5 (Pteridium aquilinum; 0.1%): 4 | damage to weeds and brush, scale 0 to 5 (Pteridium aquilinum; 0.2%): 5 | damage to weeds and brush, scale 0 to 5 (Castanea crenata; 0.05%): 2 | damage to weeds and brush, scale 0 to 5 (Castanea crenata; 0.1%): 4 | damage to weeds and brush, scale 0 to 5 (Castanea crenata; 0.2%): 5 | damage to the plants, scale 0 to 5 (Raphanus sativus; 0.1%, 7 days): 3 | damage to the plants, scale 0 to 5 (Raphanus sativus; 0.1%, 14 days): 4 | damage to the plants, scale 0 to 5 (Raphanus sativus; 0.2%, 7 days): 4 | damage to the plants, scale 0 to 5 (Raphanus sativus; 0.2%, 14 days): 5 | damage to the plants, scale 0 to 5 (Helianthus tuberosus; 0.1%, 7 days): 3 | damage to the plants, scale 0 to 5 (Helianthus tuberosus; 0.1%, 14 days): 4 | damage to the plants, scale 0 to 5 (Helianthus tuberosus; 0.2%, 7 days): 4 | damage to the plants, scale 0 to 5 (Helianthus tuberosus; 0.2%, 14 days): 5 | damage to the plants, scale 0 to 5 (Imperata cyrindrica; 0.1%, 7 days): 3 | damage to the plants, scale 0 to 5 (Imperata cyrindrica; 0.1%, 14 days): 4 | damage to the plants, scale 0 to 5 (Imperata cyrindrica; 0.2%, 7 days): 4 | damage to the plants, scale 0 to 5 (Imperata cyrindrica; 0.2%, 14 days): 5 | damage to the plants, scale 0 to 5 (Solanum melongena; 0.1%, 7 days): 3 | damage to the plants, scale 0 to 5 (Solanum melongena; 0.1%, 14 days): 4 | damage to the plants, scale 0 to 5 (Solanum melongena; 0.2%, 7 days): 5 | damage to the plants, scale 0 to 5 (Solanum melongena; 0.2%, 14 days): 5 | damage to the plants, scale 0 to 5 (Daucus carota; 0.1%, 7 days): 2 | damage to the plants, scale 0 to 5 (Daucus carota; 0.1%, 14 days): 4 | damage to the plants, scale 0 to 5 (Daucus carota; 0.2%, 7 days): 3 | damage to the plants, scale 0 to 5 (Daucus carota; 0.2%, 14 days): 5 | damage to the plants, scale 0 to 5 (Digitaria adscendens; 0.1%, 7 days): 3 | damage to the plants, scale 0 to 5 (Digitaria adscendens; 0.1%, 14 days): 4 | damage to the plants, scale 0 to 5 (Digitaria adscendens; 0.2%, 7 days): 5 | damage to the plants, scale 0 to 5 (Digitaria adscendens; 0.2%, 14 days): 5 | damage to the plants, scale 0 to 5 (Pueraria lobata; 0.1%, 7 days): 3 | damage to the plants, scale 0 to 5 (Pueraria lobata; 0.1%, 14 days): 4 | damage to the plants, scale 0 to 5 (Pueraria lobata; 0.2%, 7 days): 4 | damage to the plants, scale 0 to 5 (Pueraria lobata; 0.2%, 14 days): 5 | damage to the plants, scale 0 to 5 (Pleioblastus chino; 0.1%, 7 days): 3 | damage to the plants, scale 0 to 5 (Pleioblastus chino; 0.1%, 14 days): 4 | damage to the plants, scale 0 to 5 (Pleioblastus chino; 0.2%, 7 days): 4 | damage to the plants, scale 0 to 5 (Pleioblastus chino; 0.2%, 14 days): 5 | damage to the plants, scale 0 to 5 (Rumex obtusifolius; 0.1%, 7 days): 3 | damage to the plants, scale 0 to 5 (Rumex obtusifolius; 0.1%, 14 days): 4 | damage to the plants, scale 0 to 5 (Rumex obtusifolius; 0.2%, 7 days): 4 | damage to the plants, scale 0 to 5 (Rumex obtusifolius; 0.2%, 14 days): 5 | damage to the plants, scale 0 to 5 (Oryzae sativa; 0.1%, 7 days): 3 | damage to the plants, scale 0 to 5 (Oryzae sativa; 0.1%, 14 days): 4 | damage to the plants, scale 0 to 5 (Oryzae sativa; 0.2%, 7 days): 4 | damage to the plants, scale 0 to 5 (Oryzae sativa; 0.2%, 14 days): 5 | damage to the plants, scale 0 to 5 (Cayratia japonica; 0.1%, 7 days): 3 | damage to the plants, scale 0 to 5 (Cayratia japonica; 0.1%, 14 days): 4 | damage to the plants, scale 0 to 5 (Cayratia japonica; 0.2%, 7 days): 4 | damage to the plants, scale 0 to 5 (Cayratia japonica; 0.2%, 14 days): 5 | damage to the plants, scale 0 to 5 (Triticum aestivum; 0.1%, 7 days): 3 | damage to the plants, scale 0 to 5 (Triticum aestivum; 0.1%, 14 days): 4 | damage to the plants, scale 0 to 5 (Triticum aestivum; 0.2%, 7 days): 4 | damage to the plants, scale 0 to 5 (Triticum aestivum; 0.2%, 14 days): 5
